Test results taken from patent publication EP4516309A1, “CRHR1 AGONISTS FOR USE IN THE TREATMENT OF SOCIAL ANXIETY DISORDERS” (Consejo Superior de Investigaciones Cientificas, priority 2023, dated 2025).

Tests used:
excitatory DREADD = biological target: T1, excitatory DREADD (Homo sapiens, UniProt P20309, A239G/Y149C); assay: Repetitive social presentation test with chemogenetic activation of ILA CRH cells; assay type: in vivo, CRH-Cre mice; conditions: CNO; excitatory DREADD in ILA CRH neurons
T1 construct: host or cells: ILA CRH+ neurons of CRH-Cre mice, Cre-dependent AAV2/5 transduction in vivo
T1 sequence (P20309 whole entry Y149C/A239G): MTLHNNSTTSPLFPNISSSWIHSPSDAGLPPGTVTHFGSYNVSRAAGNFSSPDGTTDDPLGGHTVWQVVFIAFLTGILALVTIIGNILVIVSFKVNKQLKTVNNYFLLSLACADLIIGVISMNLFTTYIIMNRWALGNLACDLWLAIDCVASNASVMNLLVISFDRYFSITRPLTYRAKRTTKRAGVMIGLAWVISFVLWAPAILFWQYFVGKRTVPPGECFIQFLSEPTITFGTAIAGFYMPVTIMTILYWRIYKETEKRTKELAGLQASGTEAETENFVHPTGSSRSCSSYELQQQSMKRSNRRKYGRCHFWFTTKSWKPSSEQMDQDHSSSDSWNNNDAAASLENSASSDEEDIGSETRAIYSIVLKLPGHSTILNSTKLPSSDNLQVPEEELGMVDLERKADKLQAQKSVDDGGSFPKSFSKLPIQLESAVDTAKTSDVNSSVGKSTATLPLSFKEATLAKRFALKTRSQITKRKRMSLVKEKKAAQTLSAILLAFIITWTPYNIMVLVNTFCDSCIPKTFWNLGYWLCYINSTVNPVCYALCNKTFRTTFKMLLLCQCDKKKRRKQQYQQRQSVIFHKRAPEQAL
Method: Injection coordinates were the following (in mm from Bregma): AP: 1.65, ML: ±0.1, DV: -2.6. Injections were done bilaterally with 100 nl injected per site. AAV2/DJ hSyn.FLEX.mGFP.2A.Synatophysin-mRuby (Addgene #71760 prepared by the Stanford University vector core #1930), AAV2/8 hSyn.DIO.hM4D(Gi)-mCherry (Addgene #44362-AAV8), AAV2/8 hSyn.DIO.mCherry (Addgene #50459-AAV8), AAV2/5-hSyn-DIO-hM3D(Gq)-mCherry (Addgene, #44361-AAV5), AAV2/5 hsyn.DIO.mCherry (Addgene #50459-AAV5), AAV2/1 syn.FLEX.GCaMP6f.WPRE.SV40 (Addgene #100833-AAV1), AAV2/9 CMV-DIO-(mCherry-U6)-shRNA(anti-Crh) (VTA brain), AAV2/9 CMV-DIO-(mCherry-U6)-shRNA(scrambled) (VTA brain), AAV2/9 hSyn.FLEX.dsRed-shRNA(Vgat) (Addgene #67845), AAV 2/9 hSyn-flex-dsRed-shRNA(scrambled) (Addgene #71383), AAV2/2 CAG.FLEX.ArchT-tdTomato (Addgene #28305 prepared by the University of North Carolina vector core) and AAV2/2 CAG.FLEX.tdTomato (Addgene #28306 prepared by the University of North Carolina vector core) were injected into the ILA of CRH-Cre mice. Viruses expressed for a minimum of 2 weeks.
Repetitive social presentation test. […] Films were scored offline for social interaction by a trained observer blind to the experimental condition. Sniffing of any part of the body, allo-grooming and close following counted as social interaction. […]

inhibitory DREADD = biological target: T2, inhibitory DREADD (Homo sapiens, UniProt P08173, A203G/Y113C); assay: Social novelty preference test with chemogenetic silencing of ILA CRH cells; assay type: in vivo, CRH-Cre mice; conditions: CNO 5 mg/kg intra-peritoneally 30 min prior to the learning trial; iDREADD in ILA CRH cells
T2 construct: host or cells: ILA CRH+ neurons of CRH-Cre mice, Cre-dependent AAV2/8 transduction in vivo
T2 sequence (P08173 1-479 Y113C/A203G): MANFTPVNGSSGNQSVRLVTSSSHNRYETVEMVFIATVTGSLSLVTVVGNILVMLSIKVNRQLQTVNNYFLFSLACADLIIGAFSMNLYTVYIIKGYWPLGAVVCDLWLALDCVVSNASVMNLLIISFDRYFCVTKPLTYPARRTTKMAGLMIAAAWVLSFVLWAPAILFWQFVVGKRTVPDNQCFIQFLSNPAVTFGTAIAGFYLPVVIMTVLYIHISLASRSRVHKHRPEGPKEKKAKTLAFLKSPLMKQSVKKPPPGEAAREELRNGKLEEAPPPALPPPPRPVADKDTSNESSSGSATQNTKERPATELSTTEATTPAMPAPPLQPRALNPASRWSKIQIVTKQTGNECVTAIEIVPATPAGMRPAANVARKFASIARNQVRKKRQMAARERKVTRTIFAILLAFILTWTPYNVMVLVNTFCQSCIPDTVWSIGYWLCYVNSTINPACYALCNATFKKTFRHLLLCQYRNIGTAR
Method: Injection coordinates were the following (in mm from Bregma): AP: 1.65, ML: ±0.1, DV: -2.6. Injections were done bilaterally with 100 nl injected per site. […]
Social novelty preference test. […] Using automatic tracking of the test mice (ANY-Maze, Stoelting), the inventors quantified the time the test mice spent in the immediate area surrounding each cup - and therefore, interacting with each stimulus mice - during learning and recall. Using the interaction time from the recall trial, the inventors calculated a discrimination index for social novelty preference as the following: D! = (time with novel - time with familiar) / total interaction time. […] The inventors also calculated the total time spent interacting with stimulus mice during each trial in order to verify that the sociability drive was not affected. […]

Question: What does the source list for `C[N+]1([O-])CCN(C2=Nc3cc(Cl)ccc3Nc3ccccc32)CC1` [CNO, clozapine N-oxide]?
Answer: decrease in social interaction (excitatory DREADD): slightly facilitated; discrimination index for social novelty preference (inhibitory DREADD): not different from zero; exploration of novel and familiar mice during recall (inhibitory DREADD): explored the novel and familiar mice to the same extent
